According to paper PMC7046553, “Backbone Cyclization and Dimerization of LL-37-Derived Peptides Enhance Antimicrobial Activity and Proteolytic Stability” (Frontiers in Microbiology, 2020):
Values after ≈ are worked out from the molar mass of the structure shown. Read-outs that look alike come from different tables or passages of the source. Where a SMILES comes first, the peptide text is derived from it. Where no end group is shown, it is not given here.

Legend:
[1] = test system: Escherichia coli ATCC 25922; details: ATCC 25922, 5 h
Description: (§1) The three bacterial strains: Escherichia coli ATCC 25922, Pseudomonas aeruginosa ATCC 27853 Staphylococcus aureus ATCC 29213 as well as the fungal strain Candida albicans ATCC 90028 derived from clinical wound infections were obtained from the Department of Clinical Bacteriology at Lund University Hospital.
(§2) Antimicrobial activities of the peptides were evaluated using the two-step microdilution assay ([Strömstedt et al., 2017]), which is designed for testing AMPs without activity-inhibiting components. Briefly, the microbial suspension was washed twice with 10 mM Tris buffer (set to pH 7.4 at 37°C). 96-well plates (U-shaped, untreated polystyrene) were prepared with peptide 2-fold serial dilutions in Tris buffer. The culture density was quantified by OD600, diluted in Tris buffer and 50,000 cells aliquoted to each well in the 96-well plate to a final 100 μl volume. After 5 h of aerobic incubation at 37°C, 5 μl of 20% TSB medium was added to each well (resulting in 1% TSB) and the plates were re-incubated. Growth-inhibition was monitored when controls produced pellet sizes of 2 mm in diameter (close to growth saturation), which equates to 5, 8, 10, and 12 h for E. coli, S. aureus, P. aeruginosa, and C. albicans, respectively. […] The MIC-values in Table 1, are medians from triplicate experiments, while the data presented in the Figure 2 are the same values relative to that of KR-12.

[2] = test system: Staphylococcus aureus ATCC 29213; details: ATCC 29213, 5 h
Description: as §1, §2

[3] = test system: Candida albicans ATCC 90028
Description: as §1, §2

[4] = test system: Pseudomonas aeruginosa ATCC 27853
Description: as §1, §2

in vitro = details: 25% human serum
Description: Proteolytic stability of the peptides were determined in diluted human serum (1:4 v/v, serum:PBS) at 37°C followed by LC-MS analysis. To examine the intact peptide after serum incubation, aliquots of each incubation mixture were taken at each time point for LC-MS analysis (Figure 5).
Peptide stability was assayed in diluted human serum. 25% human serum was centrifuged at 13,000 rpm for 10 min to remove lipids and the supernatant was collected and incubated at 37°C for 15 min. […] Eighty μl of 6 M urea was added and incubated at 4°C for a further 10 min. 80 μl of 20% TCA was added and incubated at 4°C for a further 10 min. The samples were centrifuged at 13000 g for 10 min and the supernatant was analyzed by LC-MS.

[5] = median of triplicate experiments

Molecule	MIC E. coli [1]	MIC S. aureus [2]	MIC C. albicans ([3]; ATCC 90028, 5 h)	MIC P. aeruginosa ([4]; ATCC 27853, 5 h)	other results
CC[C@H](C)[C@@H]1NC(=O)[C@H](CCCCN)NC(=O)[C@H](CC(=O)O)NC(=O)[C@H](Cc2ccccc2)NC(=O)[C@H](CC(C)C)NC(=O)[C@H](CCCNC(=N)N)NC(=O)CNC(=O)CNC(=O)[C@H](CS)NC(=O)CNC(=O)[C@H](CCCCN)NC(=O)[C@H](CCCNC(=N)N)NC(=O)[C@H]([C@@H](C)CC)NC(=O)[C@H](C(C)C)NC(=O)[C@H](CCC(N)=O)NC(=O)[C@H](CCCNC(=N)N)NC(=O)[C@H]([C@@H](C)CC)NC(=O)[C@H](CCCCN)NC(=O)[C@H](CC(=O)O)NC(=O)[C@H](Cc2ccccc2)NC(=O)[C@H](CC(C)C)NC(=O)[C@H](CCCNC(=N)N)NC(=O)CNC(=O)CNC(=O)[C@H](C)NC(=O)CNC(=O)[C@H](CCCCN)NC(=O)[C@H](CCCNC(=N)N)NC(=O)[C@H]([C@@H](C)CC)NC(=O)[C@H](C(C)C)NC(=O)[C@H](CCC(N)=O)NC(=O)[C@H](CCCNC(=N)N)NC1=O [Peptide 2retro-cd4] (cyclo(CGGRLFDKIRQVIRKGAGGRLFDKIRQVIRKG))	0.625 µM (≈ 2.27 µg/mL)	1.25 µM (≈ 4.53 µg/mL)	2.5 µM (≈ 9.06 µg/mL)	1.25 µM (≈ 4.53 µg/mL)	–
CC[C@H](C)[C@@H]1NC(=O)[C@H](CCCNC(=N)N)NC(=O)[C@H](CCC(N)=O)NC(=O)[C@H](C(C)C)NC(=O)[C@H]([C@@H](C)CC)NC(=O)[C@H](CCCNC(=N)N)NC(=O)[C@H](CCCCN)NC(=O)[C@H](C)NC(=O)CNC(=O)[C@H](CCCNC(=N)N)NC(=O)[C@H](CC(C)C)NC(=O)[C@H](Cc2ccccc2)NC(=O)[C@H](CC(=O)O)NC(=O)[C@H](CCCCN)NC(=O)[C@H]([C@@H](C)CC)NC(=O)[C@H](CCCNC(=N)N)NC(=O)[C@H](CCC(N)=O)NC(=O)[C@H](C(C)C)NC(=O)[C@H]([C@@H](C)CC)NC(=O)[C@H](CCCNC(=N)N)NC(=O)[C@H](CCCCN)NC(=O)[C@H](C)NC(=O)CNC(=O)[C@H](CCCNC(=N)N)NC(=O)[C@H](CC(C)C)NC(=O)[C@H](Cc2ccccc2)NC(=O)[C@H](CC(=O)O)NC(=O)[C@H](CCCCN)NC1=O [cd2] (cyclo(AKRIVQRIKDFLRGAKRIVQRIKDFLRG))	0.625 µM (≈ 2.1 µg/mL)	1.25 µM (≈ 4.21 µg/mL)	–	0.625 µM (≈ 2.1 µg/mL)	remaining at 6 h (in vitro; human): ~30%
CC[C@H](C)[C@@H]1NC(=O)[C@H](CCCNC(=N)N)NC(=O)[C@H](CCC(N)=O)NC(=O)[C@H](C(C)C)NC(=O)[C@H]([C@@H](C)CC)NC(=O)[C@H](CCCNC(=N)N)NC(=O)[C@H](CCCCN)NC(=O)CNC(=O)[C@H](C)NC(=O)CNC(=O)[C@H](CCCNC(=N)N)NC(=O)[C@H](CC(C)C)NC(=O)[C@H](Cc2ccccc2)NC(=O)[C@H](CC(=O)O)NC(=O)[C@H](CCCCN)NC(=O)[C@H]([C@@H](C)CC)NC(=O)[C@H](CCCNC(=N)N)NC(=O)[C@H](CCC(N)=O)NC(=O)[C@H](C(C)C)NC(=O)[C@H]([C@@H](C)CC)NC(=O)[C@H](CCCNC(=N)N)NC(=O)[C@H](CCCCN)NC(=O)CNC(=O)[C@H](C)NC(=O)CNC(=O)[C@H](CCCNC(=N)N)NC(=O)[C@H](CC(C)C)NC(=O)[C@H](Cc2ccccc2)NC(=O)[C@H](CC(=O)O)NC(=O)[C@H](CCCCN)NC1=O [cd3] (cyclo(AGKRIVQRIKDFLRGAGKRIVQRIKDFLRG))	0.625 µM (≈ 2.17 µg/mL)	1.25 µM (≈ 4.35 µg/mL)	1.25 µM (≈ 4.35 µg/mL)	0.625 µM (≈ 2.17 µg/mL)	–
CC(C)C[C@@H]1NC(=O)CNC(=O)[C@H](CC(N)=O)NC(=O)[C@H](CCCNC(=N)N)NC(=O)[C@H]([C@@H](C)O)NC(=O)[C@@H]2CSSC[C@@H]3NC(=O)[C@H]([C@@H](C)O)NC(=O)CNC(=O)CNC(=O)[C@H](C(C)C)NC(=O)[C@@H]4CSSC[C@H](NC(=O)[C@H]([C@@H](C)O)NC(=O)[C@H](CSSC[C@H](NC(=O)[C@H](C(C)C)NC(=O)[C@@H]5CCCN5C1=O)C(=O)NCC(=O)N[C@@H](CCC(=O)O)C(=O)N[C@@H]([C@@H](C)O)C(=O)N4)NC(=O)CNC(=O)[C@@H]1CCCN1C(=O)[C@H]([C@@H](C)O)NC(=O)[C@H](CC(N)=O)NC3=O)C(=O)N[C@@H](CO)C(=O)N[C@@H](Cc1c[nH]c3ccccc13)C(=O)N1CCC[C@H]1C(=O)N[C@@H](C(C)C)C(=O)N2 [kalata B1, reference compound]	–	–	–	–	remaining at 24 h (in vitro; human): 80%
CC[C@H](C)[C@@H]1NC(=O)[C@H](CCCCN)NC(=O)[C@H](CC(=O)O)NC(=O)[C@H](Cc2ccccc2)NC(=O)[C@H](CC(C)C)NC(=O)[C@H](CCCNC(=N)N)NC(=O)CNC(=O)CNC(=O)[C@H](C)NC(=O)CNC(=O)[C@H](CCCNC(=N)N)NC(=O)[C@H](CC(C)C)NC(=O)[C@H](Cc2ccccc2)NC(=O)[C@H](CC(=O)O)NC(=O)[C@H](CCCCN)NC(=O)[C@H]([C@@H](C)CC)NC(=O)[C@H](CCCNC(=N)N)NC(=O)[C@H](CCC(N)=O)NC(=O)[C@H](C(C)C)NC(=O)[C@H]([C@@H](C)CC)NC(=O)[C@H](CCCNC(=N)N)NC(=O)[C@H](CCCCN)NC(=O)CNC(=O)CNC(=O)[C@H](C)NC(=O)CNC(=O)[C@H](CCCCN)NC(=O)[C@H](CCCNC(=N)N)NC(=O)[C@H]([C@@H](C)CC)NC(=O)[C@H](C(C)C)NC(=O)[C@H](CCC(N)=O)NC(=O)[C@H](CCCNC(=N)N)NC1=O [retro-cd4] (cyclo(AGGKRIVQRIKDFLRGAGGRLFDKIRQVIRKG))	–	–	–	–	MIC C. albicans [3, 5]: 2.5 µM (≈ 8.98 µg/mL); MIC P. aeruginosa [4, 5]: 0.625 µM (≈ 2.25 µg/mL)
RLFDKIRQVIRK [retro-KR-12]	5 µM	10 µM	5 µM	10 µM	detection in serum after 20 min (in vitro; 37°C): could not be detected; remaining at 10 min (in vitro; human): ~20%

The next lines start with results.

MIC E. coli [1]	MIC S. aureus [2]	MIC C. albicans ([3]; ATCC 90028, 5 h)	MIC P. aeruginosa ([4]; ATCC 27853, 5 h)	Molecule	other results
0.625 µM (≈ 2.1 µg/mL)	1.25 µM (≈ 4.21 µg/mL)	2.5 µM (≈ 8.41 µg/mL)	1.25 µM (≈ 4.21 µg/mL)	CC[C@H](C)[C@@H]1NC(=O)[C@H](CCCCN)NC(=O)[C@H](CC(=O)O)NC(=O)[C@H](Cc2ccccc2)NC(=O)[C@H](CC(C)C)NC(=O)[C@H](CCCNC(=N)N)NC(=O)[C@H](C)NC(=O)CNC(=O)[C@H](CCCNC(=N)N)NC(=O)[C@H](CC(C)C)NC(=O)[C@H](Cc2ccccc2)NC(=O)[C@H](CC(=O)O)NC(=O)[C@H](CCCCN)NC(=O)[C@H]([C@@H](C)CC)NC(=O)[C@H](CCCNC(=N)N)NC(=O)[C@H](CCC(N)=O)NC(=O)[C@H](C(C)C)NC(=O)[C@H]([C@@H](C)CC)NC(=O)[C@H](CCCNC(=N)N)NC(=O)[C@H](CCCCN)NC(=O)[C@H](C)NC(=O)CNC(=O)[C@H](CCCCN)NC(=O)[C@H](CCCNC(=N)N)NC(=O)[C@H]([C@@H](C)CC)NC(=O)[C@H](C(C)C)NC(=O)[C@H](CCC(N)=O)NC(=O)[C@H](CCCNC(=N)N)NC1=O [retro-cd2] (cyclo(AKRIVQRIKDFLRGARLFDKIRQVIRKG))	–
1.25 µM (≈ 4.35 µg/mL)	1.25 µM (≈ 4.35 µg/mL)	2.5 µM (≈ 8.7 µg/mL)	1.25 µM (≈ 4.35 µg/mL)	CC[C@H](C)[C@@H]1NC(=O)[C@H](CCCCN)NC(=O)[C@H](CC(=O)O)NC(=O)[C@H](Cc2ccccc2)NC(=O)[C@H](CC(C)C)NC(=O)[C@H](CCCNC(=N)N)NC(=O)CNC(=O)[C@H](C)NC(=O)CNC(=O)[C@H](CCCNC(=N)N)NC(=O)[C@H](CC(C)C)NC(=O)[C@H](Cc2ccccc2)NC(=O)[C@H](CC(=O)O)NC(=O)[C@H](CCCCN)NC(=O)[C@H]([C@@H](C)CC)NC(=O)[C@H](CCCNC(=N)N)NC(=O)[C@H](CCC(N)=O)NC(=O)[C@H](C(C)C)NC(=O)[C@H]([C@@H](C)CC)NC(=O)[C@H](CCCNC(=N)N)NC(=O)[C@H](CCCCN)NC(=O)CNC(=O)[C@H](C)NC(=O)CNC(=O)[C@H](CCCCN)NC(=O)[C@H](CCCNC(=N)N)NC(=O)[C@H]([C@@H](C)CC)NC(=O)[C@H](C(C)C)NC(=O)[C@H](CCC(N)=O)NC(=O)[C@H](CCCNC(=N)N)NC1=O [retro-cd3] (cyclo(AGKRIVQRIKDFLRGAGRLFDKIRQVIRKG))	–
0.625 µM	1.25 µM	0.625 µM	0.625 µM	CGGKRIVQRIKDFLRGAGGRLFDKIRQVIRKG-NH2 (C-terminus assumed) [retro-ld4*]	fold lower MIC compared to KR-12, C. albicans [3]: 16 fold
